Reference: ChEMBL document CHEMBL1201862, “PubChem BioAssay data set” (2004)
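Exposure lasted 48 hours, with cells grown in 96-well plates and compounds tested at five concentrations. GI50 is the concentration that inhibits growth by half.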 The source made the active and inactive calls. Cut-off read from the data, not from the text of the source: active = GI50 up to about 1.1 µM and inactive = higher.

How the values were obtained:
Test in all cases: inhibition of tumour cell growth, NCI panel, 48 h
[1] = test system: 786-0
[2] = test system: A498
[3] = test system: A549
[4] = test system: ACHN
[5] = test system: BT-549
[6] = test system: CAKI-1
[7] = test system: CCRF-CEM
[8] = test system: COLO 205
[9] = test system: DU-145
[10] = test system: EKVX
[11] = test system: HCC 2998
[12] = test system: HCT-116
[13] = test system: HCT-15
[14] = test system: HL-60
[15] = test system: HOP-62
[16] = test system: HOP-92
[17] = test system: HT-29
[18] = test system: Hs-578T
[19] = test system: IGROV-1
[20] = test system: K562
[21] = test system: KM12
[22] = test system: M14
[23] = test system: MCF7
[24] = test system: MDA-MB-231
[25] = test system: MDA-MB-435
[26] = test system: MDA-N
[27] = test system: MOLT-4
[28] = test system: Malme-3M
[29] = test system: NCI-H226
[30] = test system: NCI-H23
[31] = test system: NCI-H460
[32] = test system: NCI-H522
[33] = test system: NCI/ADR-RES
[34] = test system: OVCAR-3
[35] = test system: OVCAR-4
[36] = test system: OVCAR-5
[37] = test system: OVCAR-8
[38] = test system: PC-3
[39] = test system: RPMI-8226
[40] = test system: RXF 393
[41] = test system: SF-268
[42] = test system: SF-295
[43] = test system: SF-539
[44] = test system: SK-MEL-28
[45] = test system: SK-MEL-2
[46] = test system: SK-MEL-5
[47] = test system: SK-OV-3
[48] = test system: SN12C
[49] = test system: SNB-19
[50] = test system: SNB-75
[51] = test system: SR
[52] = test system: SW-620
[53] = test system: T47D
[54] = test system: TK-10
[55] = test system: U-251
[56] = test system: UACC-257
[57] = test system: UACC-62
[58] = test system: UO-31
[59] = test system: LOX IMVI

Question: With `CCCCCCCC1C(C)c2c([nH]c3ccccc23)C2C(=O)N(c3ccc(OC)cc3)C(=O)C21` (centres undefined) as the compound, how does the GI50 [1] read?
Answer: Its GI50 is 1.66 µM (inactive).

Question: What about the GI50 [2] of the same compound?
Answer: The GI50 was 2.67 µM (inactive).

Question: And the GI50 [3]?
Answer: Its GI50 is 2.33 µM (inactive).

Question: What about the GI50 [4] of the same compound?
Answer: Its GI50 is 2.66 µM (inactive).

Question: And the GI50 [5]?
Answer: The GI50 was 2.11 µM (inactive).

Question: And the GI50 [6]?
Answer: Its GI50 is 3.26 µM (inactive).

Question: What about the GI50 [7] of the same compound?
Answer: The GI50 was 2.61 µM (inactive).

Question: What about the GI50 [8] of the same compound?
Answer: The GI50 was 3.78 µM (inactive).

Question: What about the GI50 [9] of the same compound?
Answer: Its GI50 is > 8.3 µM (inactive).

Question: What about the GI50 [10] of the same compound?
Answer: The GI50 was 3.97 µM (inactive).

Question: What about the GI50 [11] of the same compound?
Answer: Its GI50 is 7.6 µM (inactive).

Question: And the GI50 [12]?
Answer: The GI50 was 1.79 µM (inactive).

Question: And the GI50 [13]?
Answer: Its GI50 is over 7.76 µM.

Question: What about the GI50 [14] of the same compound?
Answer: The GI50 was 1.95 µM (inactive).

Question: And the GI50 [15]?
Answer: The GI50 was 2.7 µM (inactive).

Question: And the GI50 [16]?
Answer: The GI50 was > 10 µM (inactive).

Question: What about the GI50 [17] of the same compound?
Answer: Its GI50 is 2.63 µM (inactive).

Question: What about the GI50 [18] of the same compound?
Answer: The GI50 was 2 µM (inactive).

Question: And the GI50 [19]?
Answer: Its GI50 is > 5.89 µM (inactive).

Question: What about the GI50 [20] of the same compound?
Answer: The GI50 was 3.11 µM (inactive).

Question: What about the GI50 [21] of the same compound?
Answer: The GI50 was 6.34 µM (inactive).

Question: And the GI50 [22]?
Answer: Its GI50 is 2.74 µM (inactive).

Question: What about the GI50 [23] of the same compound?
Answer: Its GI50 is 4.6 µM (inactive).

Question: What about the GI50 [24] of the same compound?
Answer: Its GI50 is 3.82 µM (inactive).

Question: And the GI50 [25]?
Answer: Its GI50 is 3.33 µM (inactive).

Question: What about the GI50 [26] of the same compound?
Answer: The GI50 was 4.22 µM (inactive).

Question: And the GI50 [27]?
Answer: The GI50 was 3.2 µM (inactive).

Question: And the GI50 [28]?
Answer: Its GI50 is > 4.86 µM (inactive).

Question: And the GI50 [29]?
Answer: Its GI50 is 3.1 µM (inactive).

Question: And the GI50 [30]?
Answer: The GI50 was 2.39 µM (inactive).

Question: And the GI50 [31]?
Answer: The GI50 was 1.87 µM (inactive).

Question: And the GI50 [32]?
Answer: The GI50 was 4.48 µM (inactive).

Question: And the GI50 [33]?
Answer: The GI50 was 1.7 µM (inactive).

Question: What about the GI50 [34] of the same compound?
Answer: Its GI50 is 2.48 µM (inactive).

Question: And the GI50 [35]?
Answer: The GI50 was 2.9 µM (inactive).

Question: What about the GI50 [36] of the same compound?
Answer: Its GI50 is > 10 µM (inactive).

Question: And the GI50 [37]?
Answer: The GI50 was 2.52 µM (inactive).

Question: And the GI50 [38]?
Answer: The GI50 was 4.68 µM (inactive).

Question: What about the GI50 [39] of the same compound?
Answer: The GI50 was > 5.73 µM (inactive).

Question: What about the GI50 [40] of the same compound?
Answer: Its GI50 is 2.79 µM (inactive).

Question: And the GI50 [41]?
Answer: The GI50 was 3.72 µM (inactive).

Question: What about the GI50 [42] of the same compound?
Answer: The GI50 was 2.58 µM (inactive).

Question: And the GI50 [43]?
Answer: Its GI50 is 2.69 µM (inactive).

Question: And the GI50 [44]?
Answer: Its GI50 is 5.48 µM (inactive).

Question: What about the GI50 [45] of the same compound?
Answer: Its GI50 is > 6.59 µM (inactive).

Question: What about the GI50 [46] of the same compound?
Answer: Its GI50 is > 6.22 µM (inactive).

Question: What about the GI50 [47] of the same compound?
Answer: Its GI50 is 4.68 µM (inactive).

Question: And the GI50 [48]?
Answer: Its GI50 is 2.59 µM (inactive).

Question: What about the GI50 [49] of the same compound?
Answer: Its GI50 is 3.31 µM (inactive).

Question: What about the GI50 [50] of the same compound?
Answer: Its GI50 is 1.95 µM (inactive).

Question: What about the GI50 [51] of the same compound?
Answer: The GI50 was 2.84 µM (inactive).

Question: What about the GI50 [52] of the same compound?
Answer: Its GI50 is 3.02 µM (inactive).

Question: And the GI50 [53]?
Answer: The GI50 was 3.79 µM (inactive).

Question: And the GI50 [54]?
Answer: Its GI50 is 2.38 µM (inactive).

Question: What about the GI50 [55] of the same compound?
Answer: Its GI50 is 1.92 µM (inactive).

Question: And the GI50 [56]?
Answer: Its GI50 is 2.64 µM (inactive).

Question: What about the GI50 [57] of the same compound?
Answer: Its GI50 is 4.24 µM (inactive).

Question: And the GI50 [58]?
Answer: The GI50 was 2.51 µM (inactive).

Question: Which results are given for `Cc1ccc(C2(C)CC/C(=N/N=C3/CCC(C)(c4ccc(C)c(C)c4)c4cc(C)c(C)cc43)c3cc(C)c(C)cc32)cc1C` (centres undefined)?
Answer: GI50 [1]: > 100 µM (inactive); GI50 [2]: > 100 µM (inactive); GI50 [3]: > 100 µM (inactive); GI50 [4]: > 100 µM (inactive); GI50 [5]: > 100 µM (inactive); GI50 [6]: > 100 µM (inactive); GI50 [8]: > 100 µM (inactive); GI50 [9]: > 100 µM (inactive); GI50 [10]: > 100 µM (inactive); GI50 [12]: > 100 µM (inactive); GI50 [13]: > 100 µM; GI50 [14]: > 100 µM (inactive); GI50 [15]: > 100 µM (inactive); GI50 [16]: > 100 µM (inactive); GI50 [17]: > 100 µM (inactive); GI50 [18]: > 100 µM (inactive); GI50 [19]: > 100 µM (inactive); GI50 [20]: > 100 µM (inactive); GI50 [21]: > 100 µM (inactive); GI50 [59]: > 100 µM (inactive); GI50 [22]: > 100 µM (inactive); GI50 [23]: > 100 µM (inactive); GI50 [24]: > 100 µM (inactive); GI50 [25]: > 100 µM (inactive); GI50 [26]: > 100 µM (inactive); GI50 [27]: > 100 µM (inactive); GI50 [28]: > 100 µM (inactive); GI50 [29]: > 100 µM (inactive); GI50 [30]: > 100 µM (inactive); GI50 [31]: > 100 µM (inactive); GI50 [32]: > 100 µM (inactive); GI50 [33]: > 100 µM (inactive); GI50 [34]: > 100 µM (inactive); GI50 [35]: > 100 µM (inactive); GI50 [36]: > 100 µM (inactive); GI50 [37]: > 100 µM (inactive); GI50 [38]: > 100 µM (inactive); GI50 [39]: > 100 µM (inactive); GI50 [40]: > 100 µM (inactive); GI50 [41]: > 100 µM (inactive); GI50 [42]: > 100 µM (inactive); GI50 [43]: > 100 µM (inactive); GI50 [44]: > 100 µM (inactive); GI50 [45]: > 100 µM (inactive); GI50 [46]: > 100 µM (inactive); GI50 [47]: > 100 µM (inactive); GI50 [48]: > 100 µM (inactive); GI50 [49]: > 100 µM (inactive); GI50 [50]: > 100 µM (inactive); GI50 [51]: > 100 µM (inactive); GI50 [52]: > 100 µM (inactive); GI50 [53]: > 100 µM (inactive); GI50 [54]: > 100 µM (inactive); GI50 [55]: > 100 µM (inactive); GI50 [57]: > 100 µM (inactive); GI50 [58]: > 100 µM (inactive)
